# Test results reported in ChEMBL document CHEMBL3507680, “University of Dundee, Gates Library screen for HepG2 cell viability”.
# Assay: Human HepG2 cell viability assay in 384 well format
# Assay type: toxicity, cell-based
# Design: dose 125 nL, time 70.5 hour; cytotoxicity at 70.5 h: concentration not given beside the values
# Conditions: HepG2 cells, read-out: Inhibition
row,Compound,cytotoxicity at 70.5 h [%]
1,CCC1=NN2C(=N)/C(=C\c3cccn3-c3ccc(Br)cc3)C(=O)N=C2S1,3.19
2,CC(=O)N1CC[C@H]2CC(=O)N(Cc3ccc4c(c3)OCO4)CC[C@H]2C1,-3.96
3,CCNC(=O)N1CC[C@H]2CC(=O)N(CCN3CCNC3=O)CC[C@H]2C1,-3.51
4,CC(C)(C)CC(=O)N1CC[C@H]2CC(=O)N(CCc3c[nH]cn3)CC[C@H]2C1,-4.11
5,COc1ccc(-c2noc([C@@H]3C[C@@H](O)CN3C3CCN(C)CC3)n2)cc1,-2.03
6,COCC(=O)N[C@H]1C[C@H]2C(=O)NC[C@@H](CCC(=O)NC3CC3)N2C1,-2.9
7,CN1C[C@H](O)C[C@H]1c1nc(-c2ccc3c(c2)OCO3)no1,-0.612
8,CC(C)(C)c1cc(C[C@H]2CNCC[C@H]2CC(=O)N2CCCCC2)no1,-1.6
9,CCN(CC)C(=O)CC[C@@H]1CNC(=O)[C@@H]2C[C@H](NC(=O)C3CC3)CN12,-2.96
10,CCN(CC)CC[C@H]1CN(C(=O)CC(C)(C)C)CC[C@H]1CC(=O)O,-4.24
11,CN1C[C@@H](NC(=O)CC(C)(C)C)C[C@H]1c1nc(-c2cnccn2)no1,-0.594
12,O=C1N[C@@H]2CCN(C(=O)c3ccccc3)[C@@H]2C(=O)N1Cc1ccccc1,-5.37
13,COCC(=O)N1CCN(C(=O)c2cccs2)[C@@H](C(=O)OC)C1,-5
14,CC(=O)N1CC[C@H](c2nc3cc(C)ccc3o2)C1,0.212
15,COC(=O)[C@@H]1Cc2ncn(C)c2CN1S(=O)(=O)c1cccs1,-1.34
16,CN1C[C@@H](F)[C@@H](OCc2nc3ccccc3n2C)C1,-2.45
17,FC(F)(F)c1ccc2[nH]c([C@H]3CCNC3)nc2c1,-2.06
18,c1ccc(-c2noc([C@@H]3Cc4nc[nH]c4CN3)n2)cc1,-14
19,CS(=O)(=O)c1ccc(-c2c[nH]c([C@@H]3COCCN3)n2)cc1,-8.19
20,O=C([C@@H]1Cc2[nH]cnc2CN1CC1CC1)N1CCCC1,9.33
21,COCC(=O)Nc1ccc(-c2noc([C@@H]3CCCN3C)n2)cn1,-7.79
22,CS(=O)(=O)c1ccc(CN2C[C@@H]3OCC(=O)N(CC(N)=O)[C@@H]3C2)cc1,-4.08
23,CC(=O)NC[C@H]1OC[C@@H](NC2CCC(F)(F)CC2)[C@@H]1O,-4.95
24,O=S(=O)(NC[C@H]1OC[C@@H](NCc2cccs2)[C@@H]1O)c1ccccc1,-10.7
25,CC(C)NC(=O)N[C@H]1C[C@@H](c2nc(-c3ccncc3)no2)N(C)C1,-5.9
26,CC(C)(C)CC(=O)NC[C@H]1OC[C@@H](NC2CCC(F)(F)CC2)[C@@H]1O,-5.07

row,Compound,cytotoxicity at 70.5 h [%]
1,Cc1ccc(S(=O)(=O)NC[C@H]2OC[C@@H](NCc3ccncc3)[C@@H]2O)cc1,-8.05
2,COc1ccc(-c2cn3c(n2)CO[C@@H](CNCc2nccn2C)C3)cc1,6.44
3,F[C@@H]1CN(Cc2nccs2)C[C@@H]1OCc1nc2cnccc2[nH]1,-3.2
4,Cc1cccc(CNC[C@H]2COCc3nc4cccnc4n32)n1,-9.5
5,COc1ccc2c(c1)nc1n2[C@@H](CNCc2cnn(C)c2)COC1,-8.24
6,CN(C)CCN(C)C[C@H]1CN2CC[C@H]1C[C@@H]2CNC(=O)Nc1ccsc1,-2.68
7,Cc1ccc(CNC2(Cc3cc(-c4ccccn4)on3)COC2)o1,-1.75
8,O=C(c1ccno1)N1C[C@@H](F)[C@@H](OCc2nc3ccccc3o2)C1,0.816
9,Cc1cccc(-c2noc([C@@H]3C[C@@H](O)CN3C3CCOCC3)n2)c1,-3.79
10,CN1C(=O)CO[C@H](c2ccc(NC(=O)c3cccnc3)cc2)[C@H]1CO,-2.53
11,CO[C@H]1COCCN(Cc2c[nH]c3ccccc23)C1,-4
12,O=C(C1CC1)N1CC[C@H](c2nnc(-c3ccccc3F)o2)C1,-7.55
13,O=C(NCCC1=CCCCC1)c1[nH]nc2c1CCCC2,11.2
14,CN(C)CCCNCC1CCOC(C)(C)C1 (stereo not drawn),-3.4
15,CCCNC(=O)COc1cccc(-c2nc(C(C)C)no2)c1,0.882
16,CC(C)c1noc(-c2cccc(OCC(N)=O)c2)n1,-5.07
17,COCCCNc1c(-c2ccccc2)c(=O)c1=O,-8.63
18,CCCN(CCC)CCNc1c(-c2ccccc2)c(=O)c1=O,1.06
19,COCCNc1c(-c2ccc(Cl)cc2)c(=O)c1=O,-7.26
20,Cc1nnc(NC(=O)CSCc2cc(=O)n3ccccc3n2)s1,-4.73
21,Cc1ccn2c(=O)cc(CSCC(=O)Nc3nnc(C(C)C)s3)nc2c1,23
22,CCC(C)NC(=O)CCn1ccc(C)n1 (stereo not drawn),-6.22
23,Cc1ccn(CCC(=O)NCCc2ccco2)n1,-3.53
24,Cc1nc(N2CCN(C)CC2)ncc1C(=O)N1CCCCCC1,-1.12
25,CCN(CC)S(=O)(=O)c1ccc2c(c1)N(Cc1ccccn1)C(=O)CS2,-4.62
26,CCN(CC)S(=O)(=O)c1ccc2c(c1)N(Cc1cccnc1)C(=O)CS2,-4.53

row,Compound,cytotoxicity at 70.5 h [%]
1,CCOC(=O)Cc1csc(NC(=O)c2ccc(=O)[nH]n2)n1,-5.3
2,Cc1ccc(NC(=O)c2ccc(=O)n(CC(=O)Nc3nccs3)n2)cc1,23.1
3,CCOCc1nc(N2CCOCC2)sc1C(=O)NCc1ccco1,-6.85
4,CCOCCCNC(=O)C1(C)CCC(=O)N1Cc1ccccc1F (stereo not drawn),0.95
5,O=C1N(Cc2ccncc2)CCC12CCCNC2 (stereo not drawn),-4.76
6,CC(C)NC(=O)N1CC[C@@H]2[C@@H]1CC(=O)N2Cc1cccnc1,-13.6
7,O=C(C1CCOC1)N1CCC2(CCNCC2)C1 (stereo not drawn),27.5
8,CCOC(=O)CN1CCC2(CCCN(CCOc3ccccc3)C2)C1 (stereo not drawn),-16
9,Cc1ccccc1C(=O)N1CCC2(CCC(C(=O)NCC3CC3)O2)CC1 (stereo not drawn),-18.9
10,CN1C(=O)CCCC12CCCN(C(=O)c1cc(F)cc(F)c1)C2 (stereo not drawn),-9.55
11,CN1C(=O)CCCC12CCCN(C(=O)c1ccoc1)C2 (stereo not drawn),-10.6
12,O=C(NCC1CC1)C1CCC2(CCN(C(=O)c3cnccn3)CC2)O1 (stereo not drawn),9.2
13,CC(C)N1[C@@H](C(=O)NCC2CC2)C[C@@H]2CN(Cc3ccco3)C[C@@H]21,-13.6
14,CC[C@H]1N(Cc2ccc(OC)cc2)CCC[C@]12CCC(=O)N2C,-13
15,O=C(NCC1CC1)C1CCC2(CCN(C(=O)c3ccco3)CC2)O1 (stereo not drawn),-15.5
16,CC[C@H]1N(Cc2ccco2)CCC[C@]12CCC(=O)N2C,-15.5
17,C[C@@H]1CN(C(=O)c2ccccc2F)C[C@]12CCN(CCN(C)C)C2=O,-13.1
18,Cc1cc(C)cc(C(=O)N2CCCC3(CCCC(=O)N3C)C2)c1 (stereo not drawn),-14.4
19,Cc1cc(-c2ccc(C(=O)O)cc2)nc(C2CCCN(C(C)C)C2)n1 (stereo not drawn),-9.15
20,CNC(=O)[C@@H](c1ccccc1)N1CCC[C@H]1C(=O)NCc1cccnc1,-2.18
21,CC(=O)N1[C@H](CN(C)C)C[C@@H]2CN(C(=O)c3occc3C)CC[C@@H]21,-3.81
22,O=C(NC1CC1)C1=CC2(CCN(CC3CC3)CC2)c2ccccc21,-4.67
23,CCO[C@H]1CO[C@@]2(CCN(Cc3ccc4c(c3)OCO4)C2)C1,-9.21
24,CC(=O)N1CCC2(CC1)C(=O)N(CC1CCN(C)CC1)c1ccccc12,-8.7
25,CC(=O)N1[C@H](CN(C)C)C[C@@H]2CN(C(=O)c3ccno3)CC[C@@H]21,-9.81
26,CNC(=O)CN1CCCC12CCN(C(=O)c1ccoc1)CC2,-11.1

row,Compound,cytotoxicity at 70.5 h [%]
1,O=C1C[C@H]2[C@@H](CCN2C(=O)Cc2cccs2)N1Cc1ccncc1,27.8
2,CCN1CCOCC2(CCCN(C(=O)c3ccccc3F)C2)C1 (stereo not drawn),8.58
3,CCCC(=O)N1C[C@@H]2CCN(c3cnccn3)C[C@@H]2C1,8.32
4,O=C1N(CC2CC2)CCC12CCN(Cc1ccoc1)CC2,-8.87
5,Cc1oncc1C(=O)N1CCC2(CC1)CC(N1CCOCC1)C2,-11.3
6,CC(=O)N1[C@H](CN(C)C)C[C@@H]2CN(C(=O)Cc3cccs3)CC[C@@H]21,-21.3
7,O=C(c1cccnc1)N1CCCC2(COCCN(c3ccccc3)C2)C1 (stereo not drawn),-16
8,O=C(CC1CC1)N1C[C@@H]2CCN(c3cccnc3)C[C@@H]2C1,-11.6
9,CC[C@@H]1N(Cc2nccs2)CCC[C@]12CCC(=O)N2C,9.06
10,CCN1CCOCC2(CCCN(C(=O)c3ccncc3F)C2)C1 (stereo not drawn),-3.01
11,O=C(C1CCCCC1)N1C[C@@H]2CCN(c3cnccn3)C[C@@H]2C1,-6.4
12,CCN1CCOCC2(CCCN(C(=O)c3conc3C)C2)C1 (stereo not drawn),-1.18
13,C[C@@H]1CN(S(C)(=O)=O)C[C@]12CCN(Cc1cccnc1)C2=O,14.9
14,COCCN1CCC2(CCN(c3ncccn3)CC2)C1=O,16.9
15,CN1[C@@H](C(=O)NCC2CC2)C[C@@H]2CN(Cc3ccsc3)C[C@@H]21,11.3
16,COc1ccc(CN2CC[C@H]3[C@H]2CC(=O)N3Cc2cccc(C)n2)cc1,-7.27
17,Cc1noc(C)c1CN1C[C@@H]2C[C@H](C(=O)NCC3CC3)N(C)[C@@H]2C1,-11.9
18,Cc1cccc(CN2C(=O)C[C@H]3[C@@H]2CCN3Cc2ccco2)n1,-11.7
19,CC[C@@H]1N(Cc2cccnc2)CCC[C@]12CCC(=O)N2C,-12.1
20,CC(C)NC(=O)CC1COC2(CCN(Cc3cccnc3)CC2)C1 (stereo not drawn),-12.2
21,CC[C@@H]1N(Cc2ccncc2)CCC[C@]12CCC(=O)N2C,-20.1
22,Cc1cccc(CN2C(=O)C[C@H]3[C@@H]2CCN3Cc2ccc(F)cc2)n1,-2.72
23,Cc1nc(CN2C[C@H]3C[C@H](C(=O)NCC4CC4)N(C)[C@H]3C2)cs1,9.54
24,COc1ncccc1CN1C[C@H]2C[C@@H](C(=O)NCC3CC3)N(C)[C@H]2C1,-12.9
25,COc1cc(O)cc2c1C(=O)CC(c1ccc(O)cc1)O2 (stereo not drawn),-14
